{"source": "PubChem BioAssay (NCI)", "assay_in_all_cases": "DTP human tumour cell line panel, 48 h", "key": {"NCI-H23 lung": {"system": "NCI-H23 lung"}, "NCI-H460 lung": {"system": "NCI-H460 lung"}, "NCI-H522 lung": {"system": "NCI-H522 lung"}, "NCI/ADR-RES ovarian": {"system": "NCI/ADR-RES ovarian"}, "OVCAR-3 ovarian": {"system": "OVCAR-3 ovarian"}, "OVCAR-4 ovarian": {"system": "OVCAR-4 ovarian"}, "OVCAR-5 ovarian": {"system": "OVCAR-5 ovarian"}, "OVCAR-8 ovarian": {"system": "OVCAR-8 ovarian"}, "PC-3 prostate": {"system": "PC-3 prostate"}, "RPMI-8226 leukemia": {"system": "RPMI-8226 leukemia"}, "RXF 393 renal": {"system": "RXF 393 renal"}, "SF-268 CNS": {"system": "SF-268 CNS"}, "SF-295 CNS": {"system": "SF-295 CNS"}, "SF-539 CNS": {"system": "SF-539 CNS"}, "SK-MEL-2 melanoma": {"system": "SK-MEL-2 melanoma"}, "SK-MEL-28 melanoma": {"system": "SK-MEL-28 melanoma"}, "SK-MEL-5 melanoma": {"system": "SK-MEL-5 melanoma"}, "SK-OV-3 ovarian": {"system": "SK-OV-3 ovarian"}, "SN12C renal": {"system": "SN12C renal"}, "SNB-19 CNS": {"system": "SNB-19 CNS"}, "SNB-75 CNS": {"system": "SNB-75 CNS"}, "SR leukemia": {"system": "SR leukemia"}, "SW-620 colon": {"system": "SW-620 colon"}, "T-47D breast": {"system": "T-47D breast"}, "TK-10 renal": {"system": "TK-10 renal"}, "U251 CNS": {"system": "U251 CNS"}, "UACC-257 melanoma": {"system": "UACC-257 melanoma"}, "UACC-62 melanoma": {"system": "UACC-62 melanoma"}, "UO-31 renal": {"system": "UO-31 renal"}}, "note": "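Growth conditions: 96-well plates. Treatment: test compound, 48 hours, 5 concentrations. Analysis: linear interpolation between bracketing concentrations; unreached endpoints set to highest concentration. Here, GI50 denotes the concentration required for 50% inhibition of growth. TGI: total growth inhibition.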"}
{"smiles": "CN1CCN(c2ccc(Nc3nc(NCCNS(=O)(=O)c4ccc5ccccc5c4)c4sccc4n3)cc2)CC1", "values": [{"measurement": "GI50", "setting": "NCI-H23 lung", "result": 13.3, "unit": "µM"}, {"measurement": "TGI", "setting": "NCI-H23 lung", "result": 26.9, "unit": "µM"}, {"measurement": "GI50", "setting": "NCI-H460 lung", "result": 12.1, "unit": "µM"}, {"measurement": "TGI", "setting": "NCI-H460 lung", "result": 27.2, "unit": "µM"}, {"measurement": "GI50", "setting": "NCI-H522 lung", "result": 7.16, "unit": "µM"}, {"measurement": "TGI", "setting": "NCI-H522 lung", "result": 21.6, "unit": "µM"}, {"measurement": "GI50", "setting": "NCI/ADR-RES ovarian", "result": 14.8, "unit": "µM"}, {"measurement": "TGI", "setting": "NCI/ADR-RES ovarian", "result": 38.3, "unit": "µM"}, {"measurement": "GI50", "setting": "OVCAR-3 ovarian", "result": 10.7, "unit": "µM"}, {"measurement": "TGI", "setting": "OVCAR-3 ovarian", "result": 28.1, "unit": "µM"}, {"measurement": "GI50", "setting": "OVCAR-4 ovarian", "result": 10.3, "unit": "µM"}, {"measurement": "TGI", "setting": "OVCAR-4 ovarian", "result": 28.2, "unit": "µM"}, {"measurement": "GI50", "setting": "OVCAR-5 ovarian", "result": 11.5, "unit": "µM"}, {"measurement": "TGI", "setting": "OVCAR-5 ovarian", "result": 23.7, "unit": "µM"}, {"measurement": "GI50", "setting": "OVCAR-8 ovarian", "result": 6.65, "unit": "µM"}, {"measurement": "TGI", "setting": "OVCAR-8 ovarian", "result": 19.9, "unit": "µM"}, {"measurement": "GI50", "setting": "PC-3 prostate", "result": 11.4, "unit": "µM"}, {"measurement": "TGI", "setting": "PC-3 prostate", "result": 31.1, "unit": "µM"}, {"measurement": "GI50", "setting": "RPMI-8226 leukemia", "result": 2.46, "unit": "µM"}, {"measurement": "TGI", "setting": "RPMI-8226 leukemia", "result": 6.18, "unit": "µM"}, {"measurement": "GI50", "setting": "RXF 393 renal", "result": 2.33, "unit": "µM"}, {"measurement": "TGI", "setting": "RXF 393 renal", "result": 6.58, "unit": "µM"}, {"measurement": "GI50", "setting": "SF-268 CNS", "result": 11.5, "unit": "µM"}, {"measurement": "TGI", "setting": "SF-268 CNS", "result": 30.2, "unit": "µM"}, {"measurement": "GI50", "setting": "SF-295 CNS", "result": 11.8, "unit": "µM"}, {"measurement": "TGI", "setting": "SF-295 CNS", "result": 24.1, "unit": "µM"}, {"measurement": "GI50", "setting": "SF-539 CNS", "result": 1.91, "unit": "µM"}, {"measurement": "TGI", "setting": "SF-539 CNS", "result": 4.05, "unit": "µM"}, {"measurement": "GI50", "setting": "SK-MEL-2 melanoma", "result": 19.6, "unit": "µM"}, {"measurement": "TGI", "setting": "SK-MEL-2 melanoma", "result": 36.1, "unit": "µM"}, {"measurement": "GI50", "setting": "SK-MEL-28 melanoma", "result": 2.21, "unit": "µM"}, {"measurement": "TGI", "setting": "SK-MEL-28 melanoma", "result": 5, "unit": "µM"}, {"measurement": "GI50", "setting": "SK-MEL-5 melanoma", "result": 3.27, "unit": "µM"}, {"measurement": "TGI", "setting": "SK-MEL-5 melanoma", "result": 11.3, "unit": "µM"}, {"measurement": "GI50", "setting": "SK-OV-3 ovarian", "result": 19.4, "unit": "µM"}, {"measurement": "TGI", "setting": "SK-OV-3 ovarian", "result": 35.6, "unit": "µM"}, {"measurement": "GI50", "setting": "SN12C renal", "result": 13.1, "unit": "µM"}, {"measurement": "TGI", "setting": "SN12C renal", "result": 26.3, "unit": "µM"}, {"measurement": "GI50", "setting": "SNB-19 CNS", "result": 16.3, "unit": "µM"}, {"measurement": "TGI", "setting": "SNB-19 CNS", "result": 30, "unit": "µM"}, {"measurement": "GI50", "setting": "SNB-75 CNS", "result": 11.6, "unit": "µM"}, {"measurement": "TGI", "setting": "SNB-75 CNS", "result": 24.2, "unit": "µM"}, {"measurement": "GI50", "setting": "SR leukemia", "result": 2.57, "unit": "µM"}, {"measurement": "TGI", "setting": "SR leukemia", "result": 7.42, "unit": "µM"}, {"measurement": "GI50", "setting": "SW-620 colon", "result": 6.41, "unit": "µM"}, {"measurement": "TGI", "setting": "SW-620 colon", "result": 21.8, "unit": "µM"}, {"measurement": "GI50", "setting": "T-47D breast", "result": 3.71, "unit": "µM"}, {"measurement": "TGI", "setting": "T-47D breast", "result": 16.9, "unit": "µM"}, {"measurement": "GI50", "setting": "TK-10 renal", "result": 21.5, "unit": "µM"}, {"measurement": "TGI", "setting": "TK-10 renal", "result": 37.3, "unit": "µM"}, {"measurement": "GI50", "setting": "U251 CNS", "result": 3.21, "unit": "µM"}, {"measurement": "TGI", "setting": "U251 CNS", "result": 12, "unit": "µM"}, {"measurement": "GI50", "setting": "UACC-257 melanoma", "result": 1.84, "unit": "µM"}, {"measurement": "TGI", "setting": "UACC-257 melanoma", "result": 3.56, "unit": "µM"}, {"measurement": "GI50", "setting": "UACC-62 melanoma", "result": 11.7, "unit": "µM"}, {"measurement": "TGI", "setting": "UACC-62 melanoma", "result": 24, "unit": "µM"}, {"measurement": "GI50", "setting": "UO-31 renal", "result": 12.4, "unit": "µM"}, {"measurement": "TGI", "setting": "UO-31 renal", "result": 25.5, "unit": "µM"}]}
